Structures can show the parent of a compound that is named as a salt.
Target: T1, DMT1 (Homo sapiens, UniProt P49281)
T1 sequence (P49281 1-568): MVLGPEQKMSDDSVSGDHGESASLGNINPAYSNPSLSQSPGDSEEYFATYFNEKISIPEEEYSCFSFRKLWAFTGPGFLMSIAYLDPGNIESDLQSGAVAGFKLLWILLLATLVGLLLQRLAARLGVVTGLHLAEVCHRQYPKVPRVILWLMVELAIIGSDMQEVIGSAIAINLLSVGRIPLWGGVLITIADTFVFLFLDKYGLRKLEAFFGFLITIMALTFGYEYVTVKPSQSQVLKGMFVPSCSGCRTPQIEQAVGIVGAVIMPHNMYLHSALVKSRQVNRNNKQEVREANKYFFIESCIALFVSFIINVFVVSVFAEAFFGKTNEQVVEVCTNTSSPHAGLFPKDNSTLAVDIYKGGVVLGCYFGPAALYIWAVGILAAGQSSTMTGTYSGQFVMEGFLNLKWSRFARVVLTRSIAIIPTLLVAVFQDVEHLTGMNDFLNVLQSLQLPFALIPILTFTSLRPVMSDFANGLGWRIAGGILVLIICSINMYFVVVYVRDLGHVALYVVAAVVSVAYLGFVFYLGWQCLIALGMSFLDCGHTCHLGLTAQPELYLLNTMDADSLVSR
Assay: DMT1 Activity Assay (In Vitro Assay)
Assay type: cell-based
Details: read-out: IC50 Activity Level
Text: In particular, identification of the compounds of the invention ability to modulate, preferably to inhibit, DMT1 activity, can be assessed using a variety of in vitro and in vivo assays, for measuring uptake of reduced iron (Fe^2+). One such protocol involves the screening of chemical agents for ability to modulate the activity of DMT1 thereby identifying it as a modulating agent. The in vitro activity of DMT1 can be measured in cell based assays by either directly measuring iron flux (using a radioactively labelled iron ^55Fe) or by measuring the fluorescence of a cell permeable iron fluorophore such as calcein. Stable cell lines overexpressing DMT1 are exposed to ^55Fe or loaded with calcein and then compound is applied. […] Alternatively, in another format electrophysiological techniques can be used to measure the current or iron or other metals traversing the cell membrane with DMT1 in a Xenopus oocyte or other cell based system (Gunshin et al., Nature, 1997, 31; 388(6641):482-8).
This example discloses various in vitro assay for testing and profiling test agents against DMT1 stably expressed in cells of either an endogenous or recombinant origin. These assays can use stable cell lines overexpressing DMT1 or intestinal cells and intestinal tissue expressing endogenous DMT1. DMT1 function could also be assessed in other cell types that express DMT1. Of greatest relevance would be the erythrocytes (e.g. K562 cells) or hepatocytes (e.g. […]).
DMT1 function can be assessed in a number of ways, including monitoring fluorescence changes of an iron fluorophore (e.g. calcein), monitoring uptake of radiolabelled iron (55Fe or ^59Fe) (Picard et al., J. Biol. Chem., 2000, 275(46):35738-45 and Wetli et al., Chem. Biol. 2006 September; 13(9):965-72), or by assessing the current or transport of iron and other metals into the cells or tissues using standard electrophysiological techniques (Gunshin et al., Nature, 1997, 388(6641):482-8.).
Variations of these assays involve alterations of incubation times, the iron status of the cells and tissues (which may be modulated by chemical chelators or by harvesting from iron deficient animals), the metal cation detected and the pH of the reaction can generally be made by conventional techniques known to those skilled in the art.

| IC50 | SMILES |
| --- | --- |
| ≥ 1000 nM | N=C(N)SCCc1ccccc1Sc1ccccc1CCSC(=N)N [Example 1.31, dihydrobromide] |
| 100 to 1000 nM | N=C(N)SCc1cc(F)ccc1Sc1ccc(F)cc1CSC(=N)N [Example 2, 2-[2-(2-carbamimidoylsulfanylmethyl-4-fluoro-phenylsulfanyl)-5-fluoro-benzyl]-isothiourea dihydrobromide] |
| 10 to 100 nM | N=C(N)SCc1cc(F)ccc1Sc1ccc([N+](=O)[O-])cc1CSC(=N)N [Example 2.1, 2-{[2-({[amino(imino)methyl]thio}methyl)-4-fluorophenyl]thio}-5-nitrobenzyl imidothiocarbamate dihydrobromide] |
| 100 to 1000 nM | CN(C)S(=O)(=O)c1ccc(Sc2ccc(F)cc2CSC(=N)N)c(CSC(=N)N)c1 [Example 2.2, 2-({2-({[amino(imino)methyl]thio}methyl)-4-[(dimethylamino)sulfonyl]phenyl}thio)-5-fluorobenzyl imidothiocarbamate dihydrobromide] |
| ≥ 1000 nM | N=C(N)SCc1ccccc1S(=O)(=O)c1ccccc1CSC(=N)N [Example 2.3, 2-[2-(2-carbamimidoylsulfanylmethylphenylsulfonyl)benzyl]-isothiourea dihydrobromide] |
| ≥ 1000 nM | N=C(N)SCc1cc(F)ccc1S(=O)(=O)c1ccc(F)cc1CSC(=N)N [Example 2.4, 2-[2-(2-carbamimidoylsulfanylmethyl-4-fluorophenylsulfonyl)-5-fluorobenzyl]isothiourea dihydrobromide] |
| 100 to 1000 nM | N=C(N)SCc1cc(F)ccc1Sc1cscc1CSC(=N)N [Example 2.5, (4-{[2-({[amino(imino)methyl]thio}methyl)-4-fluorophenyl]thio}-3-thienyl)methyl imidothiocarbamate dihydrochloride] |
| ≥ 1000 nM | N=C(N)SCc1cc(F)ccc1Sc1sccc1CSC(=N)N [Example 2.6, (2-{[2-({[amino(imino)methyl]thio}methyl)-4-fluorophenyl]thio}-3-thienyl)methyl imidothiocarbamate dihydrochloride] |
| ≥ 1000 nM | CS(=O)(=O)c1ccc(CSC(=N)N)c(Sc2ccc(F)cc2CSC(=N)N)c1 [Example 2.7, 2-{[2-({[amino(imino)methyl]thio}methyl)-4-fluorophenyl]thio}-4-(methylsulfonyl)benzyl imidothiocarbamate dihydrochloride] |
| ≥ 1000 nM | N#Cc1ccc(Sc2ccc(Cl)cc2CSC(=N)N)c(CSC(=N)N)c1 [Example 2.8, 2-{[2-({[amino(imino)methyl]thio}methyl)-4-chlorophenyl]thio}-5-cyanobenzyl imidothiocarbamate dihydrobromide] |
| ≥ 1000 nM | N=C(N)SCc1ccc(Cl)cc1Oc1cc([N+](=O)[O-])ccc1CSC(=N)N [Example 2.9, 2-[2-({[amino(imino)methyl]thio}methyl)-5-chlorophenoxy]-4-nitrobenzyl imidothiocarbamate dihydrobromide] |
| ≥ 1000 nM | N=C(N)SCc1cc(F)ccc1Oc1cccc(Cl)c1CSC(=N)N [Example 2.10, 2-[2-(2-carbamimidoylsulfanylmethyl-3-chlorophenoxy)-5-fluorobenzyl]isothiourea dihydrobromide] |
| 100 to 1000 nM | N=C(N)SCc1cc(F)ccc1Oc1ccc(Cl)cc1CSC(=N)N [Example 2.11, 2-[2-(2-carbamimidoylsulfanylmethyl-4-chlorophenoxy)-5-fluorobenzyl]isothiourea dihydrobromide] |
| 100 to 1000 nM | N=C(N)SCc1cc(F)ccc1Oc1cc(F)ccc1CSC(=N)N [Example 2.12, 2-[2-(2-carbamimidoylsulfanylmethyl-5-fluorophenoxy)-5-fluorobenzyl]isothiourea dihydrobromide] |
| 100 to 1000 nM | N=C(N)SCc1cc(F)ccc1Oc1ccc(F)cc1CSC(=N)N [Example 2.13, 2-[2-(2-carbamimidoylsulfanylmethyl-4-fluorophenoxy)-5-fluorobenzyl]isothiourea dihydrobromide] |
| 100 to 1000 nM | N=C(N)SCc1cc(F)ccc1Oc1ccc([N+](=O)[O-])cc1CSC(=N)N [Example 2.14, 2-[2-({[amino(imino)methyl]thio}methyl)-4-fluorophenoxy]-5-nitrobenzyl imidothiocarbamate dihydrobromide] |
| ≥ 1000 nM | N=C(N)SCc1ccccc1Oc1ccccc1CSC(=N)N [Example 2.15, 2-[2-(2-carbamimidoylsulfanylmethylphenoxy)benzyl]isothiourea dihydrobromide] |
| ≥ 1000 nM | N=C(N)SCc1ccccc1Oc1ccc(Cl)cc1CSC(=N)N [Example 2.16, 2-[2-({[amino(imino)methyl]thio}methyl)-4-chlorophenoxy]benzyl imidothiocarbamate dihydrobromide] |
| ≥ 1000 nM | N=C(N)SCc1ccccc1Oc1cccc(Cl)c1CSC(=N)N [Example 2.17, 2-[2-({[amino(imino)methyl]thio}methyl)-3-chlorophenoxy]benzyl imidothiocarbamate dihydrobromide] |
| ≥ 1000 nM | N=C(N)SCc1ccccc1Oc1cc(Cl)ccc1CSC(=N)N [Example 2.18, 2-[2-({[amino(imino)methyl]thio}methyl)-5-chlorophenoxy]benzyl imidothiocarbamate dihydrobromide] |
| ≥ 1000 nM | N=C(N)SCc1cc([N+](=O)[O-])ccc1Oc1cc(Cl)ccc1CSC(=N)N [Example 2.19, 2-[2-({[amino(imino)methyl]thio}methyl)-5-chlorophenoxy]-5-nitrobenzyl imidothiocarbamate dihydrobromide] |
| ≥ 1000 nM | N=C(N)SCc1cc(Cl)ccc1Oc1ccc([N+](=O)[O-])cc1CSC(=N)N [Example 2.20, 2-[2-({[amino(imino)methyl]thio}methyl)-4-chlorophenoxy]-5-nitrobenzyl imidothiocarbamate dihydrobromide] |
| 100 to 1000 nM | N=C(N)SCc1ccccc1Oc1ccc(F)cc1CSC(=N)N [Example 2.21, 2-[2-({[amino(imino)methyl]thio}methyl)-4-fluorophenoxy]benzyl imidothiocarbamate dihydrobromide] |
| ≥ 1000 nM | N=C(N)SCc1cccc(CSC(=N)N)c1-c1c(CSC(=N)N)cccc1CSC(=N)N [Example 2.23, biphenyl-2,2′-6,6′-tetrayltetrakis(methylene)tetracarbamimidothioate tetrahydrobromide] |
| ≥ 1000 nM | COC(=O)c1cccc(CSC(=N)N)c1-c1c(CSC(=N)N)cccc1C(=O)OC [Example 2.24, dimethyl 6,6′-bis(carbamimidoylthiomethyl)biphenyl-2,2′-dicarboxylate dihydrobromide] |
| 100 to 1000 nM | N=C(N)SCc1ccccc1C(=O)c1ccccc1CSC(=N)N [Example 2.25, 2-(6-(amidinothiomethyl)phenyl)carbonyl-1-(amidinothiomethyl)benzene dihydrobromide] |
| 100 to 1000 nM | N=C(N)SCc1ccccc1C(=O)c1ccc(F)cc1CSC(=N)N [Example 2.26, 2-(6-(amidinothiomethyl)phenyl)carbonyl-1-(amidinothiomethyl)-5-fluorobenzene dihydrobromide] |
| ≥ 1000 nM | N=C(N)SCc1ccccc1C(=O)c1cc(F)ccc1CSC(=N)N [Example 2.27, 2-(6-(amidinothiomethyl)phenyl)carbonyl-1-(amidinothiomethyl)-4-fluorobenzene dihydrobromide] |

— patent publication US20080234384A1, “BIARYL AND BIHETEROARYL COMPOUNDS USEFUL IN TREATING IRON DISORDERS” (XENON PHARMACEUTICALS INC., priority 2007, published 2008)
